Measured values taken from patent US9695155B2, “Herbicidal substituted pyrimidinyloxy benzene compounds” (E. I. DU PONT DE NEMOURS AND COMPANY, priority 2013, dated 2017).

Assays:
[1] = test system: wild oat; assay: Test C postemergence; format: in vivo, Avena fatua
In short: (§1)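 Injury was assessed visually against controls 13 to 15 days after application, with 0 meaning no effect and 100 full control; missing entries are shown as a dash. Preemergence sprays hit seeded loam–sand soil, postemergence sprays hit 1- to 4-leaf plants.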

[2] = test system: morningglory; assay: Test C postemergence; format: in vivo, Ipomoea coccinea
In short: as §1

[3] = test system: barnyardgrass; assay: Test A preemergence; format: in vivo, Echinochloa crus-galli
In short: (§2)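 Visual 0–100 rating (100 = complete control) taken about 10 d post-treatment relative to untreated checks. Preemergence: directed soil spray on sown loam/sand pots. Postemergence: seedlings 2–10 cm, 1–2 leaf. Non-phytotoxic solvent formulation with surfactant.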

[4] = test system: kochia; assay: Test C postemergence; format: in vivo, Kochia scoparia
In short: as §1

[5] = test system: velvetleaf; assay: Test A postemergence; format: in vivo, Abutilon theophrasti
In short: as §2

[6] = test system: blackgrass; assay: Test C postemergence; format: in vivo, Alopecurus myosuroides
In short: as §1

[7] = test system: yellow nutsedge; assay: Test C postemergence; format: in vivo, Cyperus esculentus
In short: as §1

[8] = test system: rice; assay: Test B flooded paddy test; format: in vivo, Oryza sativa; conditions: Flood, 250 g ai/ha, 0 to 100 scale where 0 is no effect and 100 is complete control
In short: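 Scores from 0 (no effect) to 100 (complete control) are visual comparisons with controls, taken 13 to 15 days after compound was applied into floodwater 3 cm deep around 2-leaf plants.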

[9] = Postemergence, 31 g ai/ha, scale 0 to 100 (0 no effect, 100 complete control), 13 to 15 days
[10] = Postemergence, 62 g ai/ha, scale 0 to 100 (0 no effect, 100 complete control)
[11] = 125 g ai/ha, 0 to 100 scale where 0 is no effect and 100 is complete control
[12] = 500 g ai/ha, 0 to 100 scale, 0 no effect, 100 complete control, approx. 10 days
[13] = 8 g ai/ha, postemergence, 0 is no effect, 100 is complete control
[14] = 16 g ai/ha, postemergence, 0 is no effect, 100 is complete control
[15] = 1000 g ai/ha, 0 to 100 scale, 0 no effect, 100 complete control

Fc1cnc(Oc2ccccc2-n2cc(Br)cn2)nc1 [Compound 10, 2-[2-(4-bromo-1H-pyrazol-1-yl)phenoxy]-5-fluoropyrimidine]
pest or weed control at 125 g/ha ([1]; Avena fatua, post-emergence, 125 g ai/ha, postemergence, read-out: Plant response rating (0 to 100), Oat, Wild): 5%
pest or weed control at 250 g/ha ([1]; Avena fatua, post-emergence, 250 g ai/ha, postemergence, read-out: Plant response rating (0 to 100), Oat, Wild): 30%
pest or weed control at 31 g/ha ([1]; Avena fatua, post-emergence, Postemergence, 31 g ai/ha, scale 0 to 100 (0 no effect, 100 complete control), 13 to 15 days, read-out: Plant response rating, Oat, Wild): 0%
pest or weed control at 62 g/ha ([1]; Avena fatua, post-emergence, Postemergence, 62 g ai/ha, scale 0 to 100 (0 no effect, 100 complete control), read-out: Plant response rating, Oat, Wild): 0%
pest or weed control at 125 g/ha ([2]; Ipomoea, post-emergence, 125 g ai/ha, postemergence, read-out: Plant response rating (0 to 100), Morningglory): 65%
pest or weed control at 250 g/ha ([2]; Ipomoea, post-emergence, 250 g ai/ha, postemergence, read-out: Plant response rating (0 to 100), Morningglory): 85%
pest or weed control at 31 g/ha ([2]; Ipomoea, post-emergence, Postemergence, 31 g ai/ha, scale 0 to 100 (0 no effect, 100 complete control), 13 to 15 days, read-out: Plant response rating, Morningglory): 40%
pest or weed control at 62 g/ha ([2]; Ipomoea, post-emergence, Postemergence, 62 g ai/ha, scale 0 to 100 (0 no effect, 100 complete control), read-out: Plant response rating, Morningglory): 65%
pest or weed control at 125 g/ha ([3]; Echinochloa crus-galli, pre-emergence, 240 h, 125 g ai/ha, 0 to 100 scale where 0 is no effect and 100 is complete control, read-out: Barnyardgrass plant response rating): 60%
pest or weed control at 500 g/ha ([3]; Echinochloa crus-galli, pre-emergence, 240 h, 500 g ai/ha, 0 to 100 scale, 0 no effect, 100 complete control, approx. 10 days, read-out: Barnyardgrass plant response rating): 90%
pest or weed control at 125 g/ha ([4]; Bassia scoparia, post-emergence, 125 g ai/ha, postemergence, read-out: Plant response rating (0 to 100), Kochia): 95%
pest or weed control at 250 g/ha ([4]; Bassia scoparia, post-emergence, 250 g ai/ha, postemergence, read-out: Plant response rating (0 to 100), Kochia): 98%
pest or weed control at 31 g/ha ([4]; Bassia scoparia, post-emergence, Postemergence, 31 g ai/ha, scale 0 to 100 (0 no effect, 100 complete control), 13 to 15 days, read-out: Plant response rating, Kochia): 20%
pest or weed control at 62 g/ha ([4]; Bassia scoparia, post-emergence, Postemergence, 62 g ai/ha, scale 0 to 100 (0 no effect, 100 complete control), read-out: Plant response rating, Kochia): 40%
pest or weed control at 125 g/ha ([5]; Abutilon theophrasti, post-emergence, 240 h, 125 g ai/ha, 0 to 100 scale where 0 is no effect and 100 is complete control, read-out: Plant response rating, Velvetleaf): 100%
pest or weed control at 500 g/ha ([5]; Abutilon theophrasti, post-emergence, 240 h, 500 g ai/ha, 0 to 100 scale, 0 no effect, 100 complete control, read-out: Plant response rating Velvetleaf): 100%
pest or weed control at 125 g/ha ([6]; Alopecurus myosuroides, post-emergence, 125 g ai/ha, postemergence, read-out: Plant response rating (0 to 100), Blackgrass): 40%
pest or weed control at 250 g/ha ([6]; Alopecurus myosuroides, post-emergence, 250 g ai/ha, postemergence, read-out: Plant response rating (0 to 100), Blackgrass): 75%
pest or weed control at 31 g/ha ([6]; Alopecurus myosuroides, post-emergence, Postemergence, 31 g ai/ha, scale 0 to 100 (0 no effect, 100 complete control), 13 to 15 days, read-out: Plant response rating, Blackgrass): 5%
pest or weed control at 62 g/ha ([6]; Alopecurus myosuroides, post-emergence, Postemergence, 62 g ai/ha, scale 0 to 100 (0 no effect, 100 complete control), read-out: Plant response rating, Blackgrass): 5%
pest or weed control at 125 g/ha ([7]; Cyperus, post-emergence, 125 g ai/ha, postemergence, read-out: Plant response rating (0 to 100), Nutsedge, Yellow): 5%
pest or weed control at 250 g/ha ([7]; Cyperus, post-emergence, 250 g ai/ha, postemergence, read-out: Plant response rating (0 to 100), Nutsedge, Yellow): 5%
pest or weed control at 31 g/ha ([7]; Cyperus, post-emergence, Postemergence, 31 g ai/ha, scale 0 to 100 (0 no effect, 100 complete control), 13 to 15 days, read-out: Plant response rating, Nutsedge, Yellow): 0%
pest or weed control at 62 g/ha ([7]; Cyperus, post-emergence, Postemergence, 62 g ai/ha, scale 0 to 100 (0 no effect, 100 complete control), read-out: Plant response rating, Nutsedge, Yellow): 5%
plant injury at 250 g/ha ([8]; Oryza sativa, read-out: Plant response rating, Rice): 0%

N#Cc1cccc(Oc2ncc(Cl)cn2)c1-n1cnc(Br)c1 [Compound 74]
Plant response rating (0 to 100), Oat, Wild ([1]; 125 g ai/ha, postemergence): 10
Plant response rating (0 to 100), Oat, Wild ([1]; 250 g ai/ha, postemergence): 10
Plant response rating, Oat, Wild [1, 9]: 0
Plant response rating, Oat, Wild [1, 10]: 0
Plant response rating (0 to 100), Morningglory ([2]; 125 g ai/ha, postemergence): 75
Plant response rating (0 to 100), Morningglory ([2]; 250 g ai/ha, postemergence): 85
Plant response rating, Morningglory [2, 9]: 60
Plant response rating, Morningglory [2, 10]: 75
Plant response rating, Barnyardgrass [3, 11]: 70
Barnyardgrass plant response rating [3, 12]: 100
Plant response rating (0 to 100), Kochia ([4]; 125 g ai/ha, postemergence): 90
Plant response rating (0 to 100), Kochia ([4]; 250 g ai/ha, postemergence): 90
Plant response rating, Kochia [4, 9]: 80
Plant response rating, Kochia [4, 10]: 90
Plant response rating, Velvetleaf [5, 11]: 90
Plant response rating, Velvetleaf ([5]; 500 g ai/ha, 0 to 100 scale where 0 is no effect and 100 is complete control): 100
Plant response rating (0 to 100), Blackgrass ([6]; 125 g ai/ha, postemergence): 0
Plant response rating (0 to 100), Blackgrass ([6]; 250 g ai/ha, postemergence): 5
Plant response rating, Blackgrass [6, 9]: 0
Plant response rating, Blackgrass [6, 10]: 0
Plant response rating (0 to 100), Nutsedge, Yellow ([7]; 125 g ai/ha, postemergence): 0
Plant response rating (0 to 100), Nutsedge, Yellow ([7]; 250 g ai/ha, postemergence): 0
Plant response rating, Nutsedge, Yellow [7, 9]: 0
Plant response rating, Nutsedge, Yellow [7, 10]: 0
Plant response rating, Rice [8]: 0

N#Cc1cccc(Oc2ncc(F)cn2)c1-n1cc(Br)cn1 [Compound 62]
Plant response rating (0 to 100), Oat, Wild ([1]; 125 g ai/ha, postemergence): 30
Plant response rating (0 to 100), Oat, Wild ([1]; 250 g ai/ha, postemergence): 35
Plant response rating, Oat, Wild [1, 9]: 0
Plant response rating, Oat, Wild [1, 10]: 0
Plant response rating (0 to 100), Morningglory ([2]; 125 g ai/ha, postemergence): 85
Plant response rating (0 to 100), Morningglory ([2]; 250 g ai/ha, postemergence): 90
Plant response rating, Morningglory [2, 9]: 65
Plant response rating, Morningglory [2, 10]: 70
Plant response rating, Barnyardgrass [3, 11]: 60
Barnyardgrass plant response rating [3, 12]: 100
Plant response rating (0 to 100), Kochia ([4]; 125 g ai/ha, postemergence): 90
Plant response rating (0 to 100), Kochia ([4]; 250 g ai/ha, postemergence): 95
Plant response rating, Kochia [4, 9]: 80
Plant response rating, Kochia [4, 10]: 90
Plant response rating, Velvetleaf [5, 11]: 100
Plant response rating, Velvetleaf ([5]; 500 g ai/ha, 0 to 100 scale, 0 no effect, 100 complete control): 100
Plant response rating (0 to 100), Blackgrass ([6]; 125 g ai/ha, postemergence): 30
Plant response rating (0 to 100), Blackgrass ([6]; 250 g ai/ha, postemergence): 50
Plant response rating, Blackgrass [6, 9]: 0
Plant response rating, Blackgrass [6, 10]: 5
Plant response rating (0 to 100), Nutsedge, Yellow ([7]; 125 g ai/ha, postemergence): 5
Plant response rating (0 to 100), Nutsedge, Yellow ([7]; 250 g ai/ha, postemergence): 15
Plant response rating, Nutsedge, Yellow [7, 9]: 0
Plant response rating, Nutsedge, Yellow [7, 10]: 5
Plant response rating, Rice [8]: 0

CC(=NO)c1cn(-c2c(Br)cccc2Oc2ncc(Cl)cn2)nn1 [Compound 115]
Plant response rating (0 to 100), Oat, Wild [1, 13]: 0
Plant response rating (0 to 100), Oat, Wild [1, 14]: 0
Plant response rating (0 to 100), Morningglory [2, 13]: 0
Plant response rating (0 to 100), Morningglory [2, 14]: 40
Plant response rating, Barnyardgrass [3, 15]: 100
Plant response rating (0 to 100), Kochia [4, 13]: 0
Plant response rating (0 to 100), Kochia [4, 14]: 0
Plant response rating, Velvetleaf [5, 15]: 100
Plant response rating (0 to 100), Blackgrass ([6]; 4 g ai/ha, postemergence, 0 is no effect, 100 is complete control): 0
Plant response rating (0 to 100), Blackgrass [6, 13]: 0
Plant response rating (0 to 100), Blackgrass [6, 14]: 0
Plant response rating, Blackgrass [6, 9]: 5
Plant response rating (0 to 100), Nutsedge, Yellow [7, 13]: 0
Plant response rating (0 to 100), Nutsedge, Yellow [7, 14]: 0
Plant response rating, Rice [8]: 0
